Experimental data reported in PMC12028158, “Synthesis and In Vitro Evaluation of the Anticancer Effect of Novel Phosphonium Vindoline Derivatives” (International Journal of Molecular Sciences, 2025).
“Also recorded” adds a separate entry of the source. Read-outs that look alike come from different tables or passages of the source.

Experiments:
[1] = tested on: 60 human tumor cell lines (NCI60); design: method as in PMID 39063170; conditions: previous work; cited from earlier work
MCF-7 = assay: MTT antiproliferative assay; format: cell-based, human; conditions: Homo sapiens, MCF7, 72 h; for inhibition at 30 µM: MCF-7, 30 μM, read-out: Growth Inhibition (%) ± SEM (converted)
Protocol: (§1) The antiproliferative properties of the tested compounds were additionally determined using the MTT assay against a panel of human adherent cancer cell lines isolated from breast (MCF-7 and MDA-MB-231), cervical (HeLa and SiHa), and ovarian (A2780) tumors and also on the NIH/3T3 fibroblast cell line (Table 3). IC50 values were calculated from a wider concentration range (0.1–30 μM) when higher than 50% cell growth inhibition was obtained at 10 μM (Table 4). Cisplatin was used as a reference compound. […] The noncancerous fibroblast cell line NIH/3T3 was used to gather preliminary data regarding the cancer selectivity of vindolin derivatives. […] The tumor selectivity of compound 9g, expressed as the ratio of IC50 on cancer cells and fibroblasts, is substantially higher than that of cisplatin (Table 4).
(§2) The antiproliferative effects of the prepared derivatives were evaluated in vitro using the MTT assay against a panel of human adherent cancer cell lines, including breast (MDA-MB-231, MCF-7), cervical (SiHa, HeLa), and ovarian (A2780) cancer cells. The noncancerous fibroblast cell line NIH/3T3 was included to obtain data concerning the tumor selectivity of the test substances. All cell lines were sourced from the European Collection of Cell Cultures (Salisbury, UK), except for SiHa (American Tissue Culture Collection (Manassas, VA, USA). All cell lines were maintained in Eagle’s Minimal Essential Medium (EMEM) supplemented with 10% fetal bovine serum (FBS), 1% non-essential amino acids, and a mixture of penicillin, streptomycin, and amphotericin B. The cells were maintained in a humidified atmosphere containing 5% CO2 at 37 °C. The media and the cell culture supplements were procured from Capricorn Scientific Ltd. (Ebsdorfergrund, Germany). Cells were seeded into 96-well microplates at 5000/well and, the next day, treated with vindoline derivatives at two concentrations (10 or 30 μM) for 72 h under cell culturing conditions. […] When higher than 50% cell growth inhibition was observed, the assay was repeated using a wide concentration range (0.1–30 μM). The IC50 values were calculated using GraphPad Prism software 10.3.1 (GraphPad Software, San Diego, CA, USA). Two independent experiments were performed with at least five replicates per condition.

MDA-MB-231 = assay: MTT antiproliferative assay; format: cell-based, human; conditions: Homo sapiens, 72 h; for inhibition at 10 µM: MDA-MB-231, 10 μM; for inhibition at 30 µM: MDA-MB-231, 30 μM
Protocol: as §1, §2

HeLa = assay: MTT antiproliferative assay; format: cell-based, human; conditions: Homo sapiens, HeLa, 72 h; for inhibition at 10 µM: read-out: Growth Inhibition (%) ± SEM; for inhibition at 30 µM: read-out: Growth Inhibition (%) ± SEM (converted)
Protocol: as §1, §2

SiHa = assay: MTT antiproliferative assay; format: cell-based, human; conditions: SiHa, 72 h; for inhibition at 10 µM / inhibition at 30 µM: Homo sapiens
Protocol: as §1, §2

A2780 = assay: MTT antiproliferative assay; format: cell-based, human; conditions: Homo sapiens, 72 h; for inhibition at 10 µM: A2780, 10 μM; for inhibition at 30 µM: A2780, 30 μM, read-out: Growth Inhibition (%) ± SEM (converted)
Protocol: as §1, §2

[2] = tested on: panel of human adherent cancer cell lines; assay: MTT antiproliferative assay, whole cancer panel; format: cell-based; conditions: for anticancer activity / cytotoxic effect (in words): MTT panel
Protocol: as §1, §2

NIH/3T3 (fibroblast) = assay: MTT antiproliferative assay; format: cell-based; conditions: Mus musculus, 72 h; for inhibition at 10 µM: NIH3T3, 10 μM, read-out: Growth Inhibition (%) ± SEM; for inhibition at 30 µM: NIH3T3, 30 μM, read-out: Growth Inhibition (%) ± SEM (converted)
Protocol: as §1, §2

[3] = read-out: Growth Inhibition (%) ± SEM
[4] = read-out: Growth Inhibition (%) ± SEM (converted)
[5] = heading: Growth Inhibition ± SEM

| Compound | antiproliferative effects (in words) [1] | inhibition at 30 µM (MCF-7) [%] | inhibition at 10 µM (HeLa) [%] | inhibition at 30 µM (HeLa) [%] | inhibition at 30 µM (A2780) [%] | anticancer activity / cytotoxic effect (in words) [2] | inhibition at 10 µM (NIH/3T3 (fibroblast)) [%] | inhibition at 30 µM (NIH/3T3 (fibroblast)) [%] | other results |
| --- | --- | --- | --- | --- | --- | --- | --- | --- | --- |
| CCC12C=CCN3CCC4(c5ccc(OC)cc5N(C)C4C(O)(C(=O)OC)C1OC(=O)CCCBr)C32 (centres unmarked) [compound 7, 17-(O-4-bromobutanoyl)vindoline] | do not exert antiproliferative effects |  |  |  |  |  |  |  |  |
| CCC12C=CCN3CCC4(c5ccc(OC)cc5N(C)C4C(O)(C(=O)OC)C1O)C32 (centres unmarked) [compound 6, 17-desacetylvindoline] | do not exert antiproliferative effects |  |  |  |  |  |  |  |  |
| CC[C@]12C=CCN3CC[C@@]4(c5cc(NC(=O)C[P+](c6ccccc6)(c6ccccc6)c6ccccc6)c(OC)cc5N(C)[C@H]4[C@@](O)(C(=O)OC)[C@@H]1OC(C)=O)[C@@H]32 [compound 16] |  | 47.1 | 21.7 ± 0.84 | 30 | 29.5 | no cytotoxic effect; also recorded: no remarkable anticancer activity | 24.9 ± 0.78 | 27.5 | inhibition at 10 µM (MCF-7; MCF-7, 10 μM, read-out: Growth Inhibition (%) ± SEM): 31.1 ± 3.1%; inhibition at 10 µM (MDA-MB-231; [3]): 12.64 ± 0.03%; inhibition at 30 µM (MDA-MB-231; [4]): 13.5%; inhibition at 10 µM (SiHa; [3]): 15 ± 0.34%; inhibition at 30 µM (SiHa; [4]): 36.8%; inhibition at 10 µM (A2780; [3]): 19.4 ± 0.64% |
| CC[C@]12C=CCN3CC[C@@]4(c5ccc(OC)cc5N(C)[C@H]4[C@@](O)(C(=O)OC)[C@@H]1OC(=O)CC(c1ccccc1)(c1ccccc1)c1ccccc1)[C@@H]32 [compound 13, 17-(O-3,3,3-Triphenylpropanoyl)vindoline] |  | 20.8 | 39.9 ± 2.57 | 40.1 | 11.9 | no cytotoxic effect | 26.1 ± 1.55 | 22.1 | inhibition at 10 µM (MDA-MB-231; [5]): < 10%; inhibition at 30 µM (MDA-MB-231; [5]): < 10%; inhibition at 10 µM (SiHa; [5]): < 10%; inhibition at 30 µM (SiHa; [5]): < 10%; inhibition at 10 µM (A2780; [5]): < 10%; antiproliferative effect (in words) ([2]; even at 30 μM): modest or negligible effect |
| N.N.[Cl][Pt][Cl] [Cisplatin, reference compound] |  |  |  |  |  |  |  |  | IC50 (SiHa; MTT, read-out: IC50 Value (μM) ± SEM): 15.5 ± 0.93 µM |
